Test results reported in US20190328721A1, “METHOD OF ACTIVATING DENDRITIC CELLS” (KOREA INSTITUTE OF SCIENCE AND TECHNOLOGY, priority 2018, published 2019).

Assays:
dendritic cells = test: Flow cytometry of dendritic cells from B16F10-Ova-bearing mice (maturation, subsets, cross presentation); type: in vivo
Experimental: To confirm the effect of the ROCK inhibitor Y27632 on the maturation process of dendritic cells, the inventors administered Y27362 to B16F10-Ova-bearing cancer model animals according to the same administration schedule as in Example 2-1, and the expression of CD40 and CD86, which are dendritic cell maturation markers, was analyzed by flow cytometry.
Recently, it has been shown that CD103 (corresponding to CD141 in humans)-positive dendritic cells (CD103 DC) play an important role in cancer cell phagocytosis and T cell anticancer immunity among dendritic cells (Broz et al., Cancer Cell, 26 (5): 638-652, 2014). Therefore, in order to analyze the effect of the ROCK inhibitor on CD103 DC, Y27632 was administered to B16F10-Ova-bearing cancer model mice according to the administration schedule described in the above Example 2-1, tumor tissues and tumor-draining lymph nodes were excised, and then flow cytometry analysis was performed using antibodies specifically binding to dendritic cell markers (CD11b, CD103 and CD8). It was confirmed that the ratio of CD103 DC was increased by Y27632 in both the tumor-draining lymph nodes (FIG. 15A) and the tumor tissues (FIG. 15B). On the other hand, in the case of CD11b-positive and CD8-positive dendritic cells, no change due to administration of Y27632 was observed.
The present inventors analyzed cross presentation activity which is one of functions of dendritic cells via flow cytometry analysis using an antibody capable of detecting a cancer antigen (H-2K^b-Ova) capable of activating T cells, through flow cytometry analysis using an antibody (H-2K^b monoclonal antibody, Invitrogen, USA). It was confirmed that the cross presentation of CD103 DC was increased by Y27632 in both tumor-draining lymph nodes (FIG. 15C) and tumor tissues (FIG. 15D).
Further, the present inventors analyzed CD40, which is one of the markers of dendritic cell function capable of activating T cells and a DC maturation marker of dendritic cells, by flow cytometry analysis using anti-CD40 antibodies. As shown in FIGS. 15E and 15F, it was confirmed that the maturation of CD103 DC was increased by Y27632 in the tumor-draining lymph nodes.
The present inventors analyzed a series of immunological induction processes occurring after the phagocytosis against cancer cells or cancer-specific antigens in order to analyze the mechanism of the combination therapy for the anti-cancer immune response. Specifically, in order to confirm the effect of the combination therapy on the dendritic cell maturation, Y27632 and doxorubicin were administered to B16F10-Ova-bearing cancer model mice as described above, and then tumor-draining lymph nodes were isolated and the expression of CD40 and CD86, which are dendritic cell maturation markers, was analyzed by flow cytometry analysis.
Further, in order to confirm the effect of the combined treatment on the cross presentation process to the dendritic cells, the present inventors administered Y27632 and doxorubicin to B16F10-Ova-bearing cancer model mice as described above, isolated the tumor-draining lymph nodes, and then cross presentation activity, which is one of functions of dendritic cells, was analyzed via flow cytometry analysis using an antibody capable of detect a cancer antigen (H-2K^b-Ova) capable of activating T cells, through flow cytometry analysis using an antibody (H-2K^b monoclonal antibody, Invitrogen, USA).
The present inventors then investigated the effect of the combination of the drugs on the maturation process of dendritic cells. Specifically, the tumor-draining lymph nodes were isolated after administration of Y27632 and/or cisplatin in the B16F10-Ova-bearing cancer model, and the expression level of CD40 and CD86, the dendritic cell maturation markers, was analyzed by flow cytometry. As shown in FIG. 19C and 19D, there was no influence on the maturation of dendritic cells when Y27632 alone, cisplatin alone, or the combination of the two were administered (FIGS. 19C and 19D). […]

[1] = tested on: CT26.CL25 cancer cell line; test: CT26.CL25 tumor model with depletion of immune cells; type: in vivo, mice; conditions: 10 mg/kg intravenous
Experimental: Specifically, tumor model mice were prepared by subcutaneously injecting 1×10^6 cells of CT26.CL25 cancer cell line expressing β-galactosidase into wild type mice by subcutaneous injection into the left side or the like.
For the depletion of phagocytic cells in the tumor model mice, 200 μl of control liposome (FormuMax Scientific, Inc., USA) or 200 μl of clodronate liposome (FormuMax Scientific, Inc., USA) were injected intraperitoneally 5 days after cancer cell injection, and then 100 μl of the liposomes were intraperitoneally injected at intervals of 4 days until the end of the experiment Similarly, for the depletion of CD8 T cells or CD4 T cells, 200 μg of anti-CD8a antibodies (clone 2.43, bioXcell) or anti-CD4 antibodies (Clone GK 1.5, bioXcell, USA) were intraperitoneally injected (FIGS. 10A and 10B) to the tumor model mice. As a negative control, only the carrier (PBS) or the rat-derived nonspecific antibodies (rIgG, Clone LTF-2, bioXcell, USA) was administered to the tumor model mice.
From the 6th day after the injection of the cancer cells, Y27632 was administered at a dose of 10 mg/kg continuously for two consecutive days via intravenous injection, followed by a day of rest as a cycle, followed by 3 cycles of 3-day intervals. Mice were sacrificed 22 days after the injection of cancer cells, the tumor tissues were excised, and ex vivo images were taken, and the tumor tissues were weighed. Before the sacrifice of the mice, the volume of the tumor over time was calculated as described above (FIGS. 10E and 10F). […] Thus, we confirmed that the therapeutic effect of ROCK inhibitors appears to require CD8 T cells. […] As a control, a rat-derived nonspecific antibody (rIgG, BioXcell, USA) was used.

CT26 cancer cells = test: CT26 tumor model; type: in vivo, mice; conditions: fasudil 20 mg/kg; Y27632 10 mg/kg
Experimental: The same procedure as described above was repeated except that CT26 was used instead of the CT26.CL25 colon cancer cell line and fasudil (Selleck Chemicals, USA) at 20 mg/kg of body weight or Y27632 at 10 mg/kg of body weight was administered.

[2] = tested on: CT26.CL25 colon cancer cells expressing mCherry; test: Phagocytosis of mCherry-expressing cancer cells in the tumor model; type: in vivo, mice; conditions: conditions of Example 2-3
Experimental: In order to confirm whether or not the ROCK inhibitor Y27632 induces cancer cell phagocytosis in a tumor model, CT26.CL25 colon cancer cells expressing mCherry were prepared and used to create a tumor model by injecting tumor cells into mice, and it was analyzed whether phagocytosis of macrophages and dendritic cells against cancer cells expressing mCherry was increased under the same conditions as in Example 2-3.

[3] = tumor-draining lymph nodes, cisplatin study
[4] = tumor-draining lymph nodes, doxorubicin 5 mg/kg, Y27632 10 mg/kg

Q: What does the source list for `C[C@@H](N)[C@H]1CC[C@H](C(=O)Nc2ccncc2)CC1` [Y27632]?
A: ratio of CD8-positive dendritic cells (dendritic cells; mouse, in vivo): no change; ratio of CD11b-positive dendritic cells (dendritic cells; mouse, in vivo): no change; cross presentation (H-2Kb-Ova) of CD103 DC (dendritic cells; tumor tissues): increased; ratio of CD103 DC (dendritic cells; tumor tissues): increased; expression of CD40 and CD86 in dendritic cells (dendritic cells; tumor-draining lymph node, schedule of Example 2-1): did not affect; cross presentation (H-2Kb-Ova) of CD103 DC (dendritic cells; tumor-draining lymph nodes): increased; cross-presentation (H-2Kb-Ova) in CD8 DCs (dendritic cells; tumor-draining lymph nodes): increased; maturation of CD103 DC (CD40) (dendritic cells; tumor-draining lymph nodes): increased; ratio of CD103 DC (dendritic cells; tumor-draining lymph nodes): increased; cross-presentation function (H-2Kb-Ova) of dendritic cells (dendritic cells; [3]): increase; maturation of dendritic cells (CD40 and CD86) (dendritic cells; [3]): no influence; antigenic cross presentation (H-2Kb-Ova) in the dendritic cells (dendritic cells; [4]): did not significantly increase; dendritic cell maturation (expression of CD40 and CD86) (dendritic cells; [4]): no effect; anti-cancer effect when CD8 T cells were depleted by anti-CD8a antibodies [1]: disappeared; anti-cancer effect when phagocytic cells were depleted by clodronate [1]: disappeared; anticancer effect when CD4 T cells were deficient [1]: anticancer effect similar to that in normal mice; growth of cancer (size of the tumor) (CT26 cancer cells): inhibited the growth of cancer; phagocytosis of tumor dendritic cells against cancer cells expressing mCherry [2]: increased about two-fold; phagocytosis of tumor macrophages against cancer cells expressing mCherry [2]: increased about two-fold
